According to US10092584B2 (Achillion Pharmaceuticals, Inc., priority 2015, dated 2018):
Read-outs that look alike come from different tables or passages of the source.

Biological target: T1, Human Factor D (Homo sapiens, UniProt P00746)
T1 construct: purified from human serum; purchased Complement Technology, Inc; host or cells: human serum
Assay: Human Factor D assay (Example 8)
Type: biochemical
Outline: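 Thioester cleavage assay: human Factor D (serum-derived, 80 nM final), substrate Z-L-Lys-SBzl with DTNB, both 100 μM final, after 5 min compound preincubation at room temperature.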

[1] = Table 2, Human Factor D 80 nM, substrate Z-L-Lys-SBzl, read-out: IC50
[2] = Table 1, Human Factor D 80 nM, substrate Z-L-Lys-SBzl, read-out: IC50
[3] = Table 3, Human Factor D 80 nM, substrate Z-L-Lys-SBzl, read-out: IC50 (Stars)

T1 sequence (P00746 26-253): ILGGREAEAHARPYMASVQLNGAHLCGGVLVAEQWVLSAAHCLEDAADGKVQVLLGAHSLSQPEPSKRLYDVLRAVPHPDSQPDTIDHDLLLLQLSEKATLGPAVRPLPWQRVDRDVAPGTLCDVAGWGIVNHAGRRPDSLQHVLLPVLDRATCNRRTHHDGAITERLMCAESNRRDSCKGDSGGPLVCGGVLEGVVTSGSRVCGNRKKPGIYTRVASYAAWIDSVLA

SMILES	IC50 [2] [nM]	IC50 [3] [nM]	also measured
NC(=O)c1nn(CC(=O)N2C[C@H](F)C[C@H]2C(=O)Nc2nc3cccc(Cl)c3[nH]2)c2ccccc12 [Compound 136, 1-(2-((2S,4R)-2-(7-chloro-1H-benzo[d]imidazol-2-ylcarbamoyl)-4-fluoropyrrolidin-1-yl)-2-oxoethyl)-1H-indazole-3-carboxamide]	–	–	IC50 [1]: < 1000 nM
NC(=O)c1cn(CC(=O)N2C[C@H](F)C[C@H]2C(=O)Nc2cccc(-c3ccccc3Cl)c2F)c2sccc12 [Compound 98, 6-(2-((2S,4R)-2-(2′-chloro-2-fluorobiphenyl-3-ylcarbamoyl)-4-fluoropyrrolidin-1-yl)-2-oxoethyl)-6H-thieno[2,3-b]pyrrole-4-carboxamide]	< 1000	–	–
CC(=O)c1nn(CC(=O)N2C[C@H](F)C[C@H]2C(=O)Nc2cccc(-c3ccc4nc[nH]c4c3F)c2F)c2ccccc12 [Compound 455, (2S,4R)-1-(2-(3-acetyl-1H-indazol-1-yl)acetyl)-4-fluoro-N-(2-fluoro-3-(7-fluoro-1H-benzo[d]imidazol-6-yl)phenyl)pyrrolidine-2-carboxamide]	–	< 1000	–
COc1ncc(-c2cn(CC(=O)N3C[C@H](F)C[C@H]3C(=O)Nc3cccc(-c4ccccc4Cl)c3F)nc2C(N)=O)cn1 [Compound 110, 1-(2-((2S,4R)-2-((2′-Chloro-2-fluoro-[1,1′-biphenyl]-3-yl)carbamoyl)-4-fluoropyrrolidin-1-yl)-2-oxoethyl)-4-(2-methoxypyrimidin-5-yl)-1H-pyrazole-3-carboxamide]	> 10000	–	–
CC(=O)c1nn(CC(=O)N2C[C@H](F)C[C@H]2C(=O)Nc2cccc(-c3ccc4[nH]cnc4c3Cl)c2F)c2cnccc12 [Compound 459, (2S,4R)-1-(2-(3-acetyl-1H-pyrazolo[3,4-c]pyridin-1-yl)acetyl)-N-(3-(4-chloro-1H-benzo[d]imidazol-5-yl)-2-fluorophenyl)-4-fluoropyrrolidine-2-carboxamide]	–	< 1000	–
CC(=O)c1nn(CC(=O)N2C[C@H](F)C[C@H]2C(=O)Nc2cccc(Br)n2)c2ccccc12 [Compound 388, (2S,4R)-1-(2-(3-acetyl-1H-indazol-1-yl)acetyl)-N-(6-bromopyridin-2-yl)-4-fluoropyrrolidine-2-carboxamide]	–	< 1000	–
NC(=O)c1nn(CC(=O)N2C[C@H](F)C[C@H]2C(=O)Nc2cccc(-c3c(F)cc(F)cc3Cl)c2)c2cnccc12 [Compound 101, 1-(2-((2S,4R)-2-(2′-chloro-4′,6′-difluorobiphenyl-3-ylcarbamoyl)-4-fluoropyrrolidin-1-yl)-2-oxoethyl)-1H-pyrazolo[3,4-c]pyridine-3-carboxamide]	< 1000	–	–
CC(=O)c1nn(CC(=O)N2[C@@H]3C[C@@H]3C[C@H]2C(=O)Nc2cccc(-c3ccc4[nH]cnc4c3Cl)c2F)c2ccccc12 [Compound 463, (1R,3S,5R)-2-(2-(3-acetyl-1H-indazol-1-yl)acetyl)-N-(3-(4-chloro-1H-benzo[d]imidazol-5-yl)-2-fluorophenyl)-2-azabicyclo[3.1.0] hexane-3-carboxamide]	–	< 1000	–
CC(=O)Nc1ccc(C(=O)N2C[C@H](F)C[C@H]2C(=O)NCc2cccc(Cl)c2F)cn1 [Compound 51, (2S,4R)-1-(6-acetamidonicotinoyl)-N-(3-chloro-2-fluorobenzyl)-4-fluoropyrrolidine-2-carboxamide]	> 10000	–	–
CC(=O)c1cc(CC(=O)N2C[C@H](F)C[C@H]2C(=O)Nc2cccc(-c3ccccc3Cl)c2F)n2ccccc12 [Compound 312, (2S,4R)-1-(2-(1-Acetylindolizin-3-yl)acetyl)-N-(2′-chloro-2-fluorobiphenyl-3-yl)-4-fluoropyrrolidine-2-carboxamide]	–	< 1000	–
NC(=O)c1cn(CC(=O)N2CCS[C@H]2C(=O)Nc2cccc(-c3ccccc3Cl)c2F)c2ccccc12 [Compound 375, (S)-3-(2-(3-carbamoyl-1H-indol-1-yl)acetyl)-N-(2′-chloro-2-fluoro-[1,1′-biphenyl]-3-yl)thiazolidine-2-carboxamide]	–	< 1000	–
CC(=O)c1nn(CC(=O)N2[C@@H]3C[C@@H]3C[C@H]2C(=O)NC/C(F)=C(/C)c2cccc(Cl)c2)c2ccccc12 [Compound 396]	–	< 1000	–
CC(=O)c1cn(C(C)(C)C(=O)N2C[C@H](F)C[C@H]2C(=O)NCc2cccc(Cl)c2F)c2ccccc12 [Compound 56]	> 10000	–	–
CC(=O)n1cc(C(=O)C(=O)N2C[C@H](F)C[C@H]2C(=O)NCc2cccc(Cl)c2F)c2ccccc21 [Compound 71, (2S,4R)-1-(2-(1-acetyl-1H-indol-3-yl)-2-oxoacetyl)-N-(3-chloro-2-fluorobenzyl)-4-fluoropyrrolidine-2-carboxamide]	> 10000	–	–
CC(=O)c1cn(CC(=O)N2C[C@H](F)C[C@H]2C(=O)Nc2cccc(-c3ccccc3Cl)c2F)c2c(C#N)cccc12 [Compound 79, (2S,4R)-1-(2-(3-acetyl-7-cyano-1H-indol-1-yl)acetyl)-N-(2′-chloro-2-fluorobiphenyl-3-yl)-4-fluoropyrrolidine-2-carboxamide]	–	–	IC50: < 1000 nM
NC(=O)c1nn(CC(=O)N2C[C@H](F)C[C@H]2C(=O)Nc2cccc(-c3cc(C(=O)CO)ccc3Cl)c2F)c2ccccc12 [Compound 141, 1-(2-((2S,4R)-2-(2′-chloro-2-fluoro-5′-(2-hydroxyacetyl)bi-phenyl-3-ylcarbamoyl)-4-fluoropyrrolidin-1-yl)-2-oxoethyl)-1H-indazole-3-carboxamide]	–	–	IC50 [1]: < 1000 nM
NC(=O)c1cn(CC(=O)N2C[C@H](F)C[C@H]2C(=O)Nc2cccc(-c3ccccc3Cl)c2F)c2ccsc12 [Compound 103, 4-(2-((2S,4R)-2-(2′-chloro-2-fluorobiphenyl-3-ylcarbamoyl)-4-fluoropyrrolidin-1-yl)-2-oxoethyl)-4H-thieno[3,2-b]pyrrole-6-carboxamide]	< 1000	–	–
NC(=O)c1nn(CC(=O)N2CC(=O)C[C@H]2C(=O)Nc2cccc(-c3ccccc3Cl)c2F)c2ccccc12 [Compound 355, (S)-1-(2-(2-((2′-chloro-2-fluoro-[1,1′-biphenyl]-3-yl)carbamoyl)-4-oxopyrrolidin-1-yl)-2-oxoethyl)-1H-indazole-3-carboxamide]	–	< 1000	–
O=C(c1cn(CC(=O)N2[C@@H]3C[C@@H]3C[C@H]2C(=O)NCc2cccc(Cl)c2F)c2ccccc12)C1CC1 [Compound 22, (1R,3S,5R)-N-(3-chloro-2-fluorobenzyl)-2-(2-(3-(cyclopropanecarbonyl)-1H-indol-1-yl)acetyl)-2-azabicyclo[3.1.0] hexane-3-carboxamide]	–	–	IC50: < 1000 nM
NC(=O)c1nn(CC(=O)N2C[C@H](F)C[C@H]2C(=O)Nc2cccc(-c3ccc4c(c3)NCCO4)c2F)c2ccccc12 [Compound 442, 1-(2-((2S,4R)-2-((3-(3,4-Dihydro-2H-benzo[b][1,4]oxazin-6-yl)-2-fluorophenyl)carbamoyl)-4-fluoropyrrolidin-1-yl)-2-oxoethyl)-1H-indazole-3-carboxamide]	–	< 1000	–
CC(=O)c1nn(CC(=O)N2C[C@H](F)C[C@H]2C(=O)Nc2cccc(-c3ccccc3Cl)c2F)c2cc(C(=O)O)sc12 [Compound 138]	–	–	IC50 [1]: < 1000 nM
NC(=O)n1cc(NC(=O)N2C[C@H](F)C[C@H]2C(=O)NS(=O)(=O)c2cccc(Cl)c2F)c2ccccc21 [Compound 6, (2S,4R)-N1-(1-carbamoyl-1H-indol-3-yl)-N2-(3-chloro-2-fluorophenylsulfonyl)-4-fluoropyrrolidine-1,2-dicarboxamide]	> 10000	–	–
CC(=O)c1nn(CC(=O)N2C[C@H](F)C[C@H]2C(=O)Nc2cccc(-c3cccc4nc[nH]c34)c2F)c2ccccc12 [Compound 457, (2S,4R)-N-(3-(1H-benzo[d]imidazol-7-yl)-2-fluorophenyl)-1-(2-(3-acetyl-1H-indazol-1-yl)acetyl)-4-fluoropyrrolidine-2-carboxamide]	–	< 1000	–
NC(=O)c1nn(CC(=O)N2CC[C@@H](N)[C@H]2C(=O)Nc2cccc(-c3ccccc3Cl)c2F)c2ccccc12 [Compound 356, 1-(2-((2S,3R)-3-amino-2-((2′-chloro-2-fluoro-[1,1′-biphenyl]-3-yl)carbamoyl)pyrrolidin-1-yl)-2-oxoethyl)-1H-indazole-3-carboxamide]	–	< 1000	–
CC(=O)c1cn(CC(=O)N2C[C@H](F)C[C@H]2C(=O)Nc2cccc(-c3ccc4[nH]cnc4c3Cl)c2F)c2ccccc12 [Compound 460, (2S,4R)-1-(2-(3-acetyl-1H-indol-1-yl)acetyl)-N-(3-(4-chloro-1H-benzo[d]imidazol-5-yl)-2-fluorophenyl)-4-fluoropyrrolidin-2-carboxamide]	–	< 1000	–
CC(=O)n1cc(NC(=O)[C@H]2CC(F)(F)CN2C(=O)Cc2cccc(Cl)c2F)c2ccccc21 [Compound 17, (R)-N-(1-acetyl-1H-indol-3-yl)-1-(2-(3-chloro-2-fluorophenyl)acetyl)-4,4-difluoropyrrolidine-2-carboxamide]	> 10000	–	–
NC(=O)c1nn(CC(=O)N2C[C@H](F)C[C@H]2C(=O)Nc2cccc(Br)n2)c2ccsc12 [Compound 106, 1-(2-((2S,4R)-2-((6-Bromopyridin-2-yl)carbamoyl)-4-fluoropyrrolidin-1-yl)-2-oxoethyl)-1H-thieno[3,2-c]pyrazole-3-carboxamide]	< 1000	–	–
CC(=O)c1cn(CC(=O)N2C[C@H](F)C[C@H]2C(=O)Nc2cccc(-c3ccccc3Cl)c2F)c2c(-c3ccc(Cl)nc3)cccc12 [Compound 112, (2S,4R)-1-(2-(3-acetyl-7-(6-chloropyridin-3-yl)-1H-indol-1-yl)acetyl)-N-(2′-chloro-2-fluorobiphenyl-3-yl)-4-fluoropyrrolidine-2-carboxamide]	–	–	IC50: < 1000 nM
CC(=O)c1nn(CC(=O)N2C[C@H](F)C[C@H]2C(=O)Nc2cccc(-c3ccc4c(c3)CCN4)c2F)c2ccccc12 [Compound 435, (2S,4R)-1-(2-(3-Acetyl-1H-indazol-1-yl)acetyl)-4-fluoro-N-(2-fluoro-3-(indolin-5-yl)phenyl)pyrrolidine-2-carboxamide]	–	< 1000	–
